Data published in patent US5594024A, “Centrally actig substituted phenylazacycloalkanes” (priority 1995, dated 1997).
“Also recorded” adds a separate entry of the source.

Assays:
striatal DA release = assay: In vivo brain microdialysis in rat striatum (conscious rats); details: for Microdialysis in rat striatum, 5-HIAA / Microdialysis in rat striatum, DA / Microdialysis in rat striatum, DOPAC / Microdialysis in rat striatum, HVA: 50 μmol/kg s.c.
Protocol: In the experiments with habituated rats no NSD was administered and the animals were killed one hour after drug administration. […] The levels were expressed as % of controls (DOPAC and 5-HIAA see Table 3). The in vivo brain microdialysis experiments were performed in conscious rats as described by Waters et al., Eur. J. Pharm., 187, 425-34 (1990).
The dialysis was performed in conscious rats implanted with a dialysis probe (Carnegie Medicin, Stockholm) in the caudate. […] The perfusion media was a Ringer solution with a Ca2+ concentration of 1.2 mM. The perfusion rate was 2.0 μL/min and samples were collected every 20 minutes and analyzed on HPLC/EC. Data are expressed as % of controls, means ±SEM, n=4.

D2 receptors = target: T1, D2 receptors (Rattus norvegicus, UniProt P61169); assay: D2 antagonist binding ([3H]-spiperone), rat striatum
T1 construct: Preparation of rat striatal membranes for (3H)-spiperone; from tissue; host or cells: rat striatum (striatal membranes)
T1 sequence (P61169 whole entry): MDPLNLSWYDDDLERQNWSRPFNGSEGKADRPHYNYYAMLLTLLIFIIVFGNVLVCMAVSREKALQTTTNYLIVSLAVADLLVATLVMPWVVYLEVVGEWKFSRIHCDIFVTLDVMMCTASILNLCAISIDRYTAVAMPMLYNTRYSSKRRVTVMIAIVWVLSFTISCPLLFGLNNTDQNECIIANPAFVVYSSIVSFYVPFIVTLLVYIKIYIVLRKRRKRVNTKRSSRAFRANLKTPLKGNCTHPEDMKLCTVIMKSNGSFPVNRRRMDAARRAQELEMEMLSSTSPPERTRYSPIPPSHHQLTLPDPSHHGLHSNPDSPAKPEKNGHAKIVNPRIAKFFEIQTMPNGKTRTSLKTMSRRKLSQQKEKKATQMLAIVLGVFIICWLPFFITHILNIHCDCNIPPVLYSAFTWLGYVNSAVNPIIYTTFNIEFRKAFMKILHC
Protocol: D2 antagonist binding. Preparation of rat striatal membranes for (3H)-spiperone (specific activity 21-24 Ci/mmol) binding was carried out in a similar manner as described for D1-binding, Hyttel et al., J. Neural. Transm., 68, 171 (1987).
IC50 values were calculated by semi-log plot and linear regression analysis.

dopamine autoreceptors = assay: GBL-model (DA synthesis rate; presynaptic dopamine autoreceptors); format: in vivo, rat
Text: The effects on DOPA accumulation in the GBL-model is considered to reflect an event at the presynaptic dopamine autoreceptors (for further details, see Svensson et al., Nunyn-Schmiedeberg's Arch. Pharm., 334, 234(1986)).

CCCN1CCC[C@@H](c2cccc(C#N)c2)C1 [S-(-)-34, S-(-)-3-(3-Cyanophenyl-N-n-propyl)piperidine]
Microdialysis in rat striatum, 5-HIAA (striatal DA release; 0 min): 100 % of control | Microdialysis in rat striatum, DA (striatal DA release; 0 min): 100 % of control | Microdialysis in rat striatum, DOPAC (striatal DA release; 0 min): 100 % of control | Microdialysis in rat striatum, HVA (striatal DA release; 0 min): 100 % of control | Microdialysis in rat striatum, 5-HIAA (striatal DA release; 20 min): 110 % of control | Microdialysis in rat striatum, DA (striatal DA release; 20 min): 180 % of control | Microdialysis in rat striatum, DOPAC (striatal DA release; 20 min): 180 % of control | Microdialysis in rat striatum, HVA (striatal DA release; 20 min): 140 % of control | Microdialysis in rat striatum, 5-HIAA (striatal DA release; 40 min): 115 % of control | Microdialysis in rat striatum, DA (striatal DA release; 40 min): 240 % of control | Microdialysis in rat striatum, DOPAC (striatal DA release; 40 min): 250 % of control | Microdialysis in rat striatum, HVA (striatal DA release; 40 min): 200 % of control | Microdialysis in rat striatum, 5-HIAA (striatal DA release; 60 min): 120 % of control | Microdialysis in rat striatum, DA (striatal DA release; 60 min): 280 % of control | Microdialysis in rat striatum, DOPAC (striatal DA release; 60 min): 295 % of control | Microdialysis in rat striatum, HVA (striatal DA release; 60 min): 250 % of control | Microdialysis in rat striatum, 5-HIAA (striatal DA release; 80 min): 115 % of control | Microdialysis in rat striatum, DA (striatal DA release; 80 min): 300 % of control | Microdialysis in rat striatum, DOPAC (striatal DA release; 80 min): 300 % of control | Microdialysis in rat striatum, HVA (striatal DA release; 80 min): 280 % of control | Microdialysis in rat striatum, 5-HIAA (striatal DA release; 100 min): 115 % of control | Microdialysis in rat striatum, DA (striatal DA release; 100 min): 280 % of control | Microdialysis in rat striatum, DOPAC (striatal DA release; 100 min): 295 % of control | Microdialysis in rat striatum, HVA (striatal DA release; 100 min): 300 % of control | Microdialysis in rat striatum, 5-HIAA (striatal DA release; 120 min): 110 % of control | Microdialysis in rat striatum, DA (striatal DA release; 120 min): 275 % of control | Microdialysis in rat striatum, DOPAC (striatal DA release; 120 min): 280 % of control | Microdialysis in rat striatum, HVA (striatal DA release; 120 min): 310 % of control | Microdialysis in rat striatum, 5-HIAA (striatal DA release; 140 min): 105 % of control | Microdialysis in rat striatum, DA (striatal DA release; 140 min): 225 % of control | Microdialysis in rat striatum, DOPAC (striatal DA release; 140 min): 260 % of control | Microdialysis in rat striatum, HVA (striatal DA release; 140 min): 300 % of control | Microdialysis in rat striatum, 5-HIAA (striatal DA release; 160 min): 110 % of control | Microdialysis in rat striatum, DA (striatal DA release; 160 min): 200 % of control | Microdialysis in rat striatum, DOPAC (striatal DA release; 160 min): 250 % of control | Microdialysis in rat striatum, HVA (striatal DA release; 160 min): 305 % of control | Microdialysis in rat striatum, 5-HIAA (striatal DA release; 180 min): 110 % of control | Microdialysis in rat striatum, DA (striatal DA release; 180 min): 190 % of control | Microdialysis in rat striatum, DOPAC (striatal DA release; 180 min): 230 % of control | Microdialysis in rat striatum, HVA (striatal DA release; 180 min): 280 % of control | Microdialysis in rat striatum, 5-HIAA (striatal DA release; 200 min): 110 % of control | Microdialysis in rat striatum, DA (striatal DA release; 200 min): 180 % of control | Microdialysis in rat striatum, DOPAC (striatal DA release; 200 min): 215 % of control | Microdialysis in rat striatum, HVA (striatal DA release; 200 min): 220 % of control | Microdialysis in rat striatum, 5-HIAA (striatal DA release; 220 min): 100 % of control | Microdialysis in rat striatum, DA (striatal DA release; 220 min): 160 % of control | Microdialysis in rat striatum, DOPAC (striatal DA release; 220 min): 190 % of control | Microdialysis in rat striatum, HVA (striatal DA release; 220 min): 230 % of control | duration for the increase in DOPAC and HVA (striatal DA release; 50 μmol/kg, sc): at least 4 hours | duration of the effect (DA release) (striatal DA release; 50 μmol/kg, sc): approximately 2.5 hours | levels of 5-HIAA, microdialysis (in words) (striatal DA release; 50 μmol/kg, sc): No consistent changes in the levels of 5-HIAA; also recorded: failed to affect brain levels of 5-HIAA | affinity for D2 receptors (in words) (D2 receptors; (3H)-Spiperone binding): weak, affinity to the dopamine D2 receptor site | IC50 (D2 receptors; read-out: in vitro binding IC50, D2 -spip, [3H]-spiperone, rat striatum): 3.5 µM | blockade of the apomorphine effect in the GBL-model (dopamine autoreceptors; 100 μmol/kg, sc): only a partial blockade | effect per se in the GBL-model (dopamine autoreceptors; 200 μmol/kg, sc): inactive per se | blockade of the apomorphine effect in the GBL-model (dopamine autoreceptors; 200 μmol/kg, sc, 40 minutes): blocked the effect of apomorphine | blockade of apomorphine in the GBL-model (in words) (dopamine autoreceptors; rat, in vivo): blocks apomorphine in the GBL-model
